Legend:
[1] = Salt screening with strong acids (chemical stability, HPLC purity); format: physicochemical
Description: A salt screening was conducted with 6 pharmaceutically acceptable strong acids. About 25 mg of compound 1 was weighed into a 1.5-mL glass vial, then 1.1 eq. of selected acid was weighted into the above glass vial. Liquid strong acid was pre-diluted in corresponding solvent. After addition of 0.5 mL solvent, the mixture was stirred at RT for 24 h. 0.5 mL more solvent was added to dilute several viscous systems at 4 h (highlighted as * in the summary table). If no solid was obtained, anti-solvent of heptane was added into the filtrates gradually at RT to induce precipitation (highlighted as ** in the summary table). The suspensions were filtered and the solids were vacuum dried at 40° C. for 4 h.
HPLC results (Table 33) confirmed significant purity decrease by>15%.

[2] = Slurry competition experiments (thermodynamic stability relationship); format: physicochemical; conditions: RT
Description: Slurry competition experiments were carried out between anhydrous and hydrates, to establish stability relationships. Appropriate amount of Form I was suspended in different solvents for pre-saturation at RT. Then the filtrate was added into equal amount of different forms, and the mixture was kept stirring at RT for certain time before XRPD tests.

[3] = Slurry conversion of Form I and Form X in solvents (XRPD result); format: physicochemical; conditions: for XRPD Result-Day 3: slurry at 80° C.
Description: Appropriate amount of Form I was added into different solvents to make suspensions, which were kept stirring at RT and 50° C. for 3 and 7 days, and at 80° C. for 3 days. Solid samples were collected by centrifugation and analyzed by XRPD. Forms I-IV, VII and VIII were obtained by slurry experiments of Form I.
Appropriate amount of Form X was added into different solvents to make suspensions, which were kept stirring at RT and 50° C. for 3 and 7 days, and at 80° C. for 3 days. Solid samples were collected by centrifugation and analyzed by XRPD.

[4] = Solubility estimation at RT by visual observation in selected solvent systems; conditions: RT
Description: The solubility of compound 1 Form I and Form X was estimated at RT by visual observation in selected solvent systems. Approximately 5 mg solids were weighed into 8 mL glass vial, and then solvent was added stepwise until solids were dissolved completely or a total of solvent volume reached 5 mL.

[5] = Slurry conversion of Form I and Form X in solvents (XRPD result); format: physicochemical; conditions: slurry at RT, Toluene
[6] = slurry at 50° C., 2-MeTHF/CYH (1/4)
[7] = slurry at 50° C., ACN/water (1/9)
[8] = slurry at 50° C., Acetone/water (1/4)
[9] = slurry at 50° C., IPAc/heptane (1/4)
[10] = slurry at 50° C., IPE/water (200/1)
[11] = slurry at 50° C., Toluene/heptane (1/4)
[12] = slurry at RT, Acetone/water (1/4)
[13] = slurry at RT, IPAc/heptane (1/4)
[14] = slurry at RT, IPE/water (200/1)
[15] = slurry at RT, Toluene/heptane (1/4)

[2H]C([2H])(Oc1cc(C)n(-c2c(C)cnc(-n3ccc(C(C)(C)O)n3)c2F)c(=O)c1Cl)c1ncc(F)cc1F (atropisomer, axis not shown; (M)) [compound 1, (M)-3-chloro-4-((3,5-difluoropyridin-2-yl)methoxy-d2)-3′-fluoro-2′-(3-(2-hydroxypropan-2-yl)-1H-pyrazol-1-yl)-5′,6-dimethyl-2H-[1,4′-bipyridin]-2-one]
chemically unstable: chemical stability under strong acidic conditions ([1]; salt screening with 6 strong acids)

[2H]C([2H])(Oc1cc(C)n(-c2c(C)cnc(-n3ccc(C(C)(C)O)n3)c2F)c(=O)c1Cl)c1ncc(F)cc1F [Form I + IV]
Form IV + IX: Output of competitive slurry (XRPD) ([2]; Water/MeOH (9/1), 3 d) | Output of competitive slurry (XRPD) ([2]; Water/MeOH (19/1), 3 d)
Form IV: Output of competitive slurry (XRPD) ([2]; Water, 3 d)

[2H]C([2H])(Oc1cc(C)n(-c2c(C)cnc(-n3ccc(C(C)(C)O)n3)c2F)c(=O)c1Cl)c1ncc(F)cc1F [Form I, starting material]
99.29 area %: Purity (area %) ([1]; salt screening samples, HPLC, chemical stability under strong acid)

[2H]C([2H])(Oc1cc(C)n(-c2c(C)cnc(-n3ccc(C(C)(C)O)n3)c2F)c(=O)c1Cl)c1ncc(F)cc1F [Form IV + IX]
Form X + IV: Output of competitive slurry (XRPD) ([2]; Water/MeOH (9/1), 3 d)
Form X + IV (trace): Output of competitive slurry (XRPD) ([2]; Water, 3 d)
Form X: Output of competitive slurry (XRPD) ([2]; Water/MeOH (17/3), 3 d) | Output of competitive slurry (XRPD) ([2]; Water/MeOH (19/1), 3 d)

[2H]C([2H])(Oc1cc(C)n(-c2c(C)cnc(-n3ccc(C(C)(C)O)n3)c2F)c(=O)c1Cl)c1ncc(F)cc1F [Form IV + X]
Form X: Output of competitive slurry (XRPD) ([2]; Water, 2 d)

[2H]C([2H])(Oc1cc(C)n(-c2c(C)cnc(-n3ccc(C(C)(C)O)n3)c2F)c(=O)c1Cl)c1ncc(F)cc1F [Form I]
> 100000 µg/mL: Estimated Solubility ([4]; visual observation, most tested solvents)
Form I: XRPD Result Day 3 ([3]; slurry at RT, CYH) | XRPD Result Day 7 ([3]; slurry at RT, CYH) | XRPD Result Day 3 ([3]; slurry at RT, Heptane) | XRPD Result Day 7 ([3]; slurry at RT, Heptane) | XRPD Result Day 3 ([3]; slurry at RT, MeCYH) | XRPD Result Day 7 ([3]; slurry at RT, MeCYH) | XRPD Result Day 3 ([3]; slurry at RT, Water) | XRPD Result Day 7 ([3]; slurry at RT, Water)
Form VII: XRPD Result Day 3 [3, 6] | XRPD Result Day 3 [3, 12] | XRPD Result Day 7 [3, 12]
Form IV + VIII: XRPD Result Day 3 [3, 9] | XRPD Result Day 7 [3, 9] | XRPD Result Day 7 ([3]; slurry at 50° C., IPE)
Form IV: XRPD Result Day 3 [3, 7] | XRPD Result Day 7 [3, 7] | XRPD Result Day 3 [3, 8] | XRPD Result Day 7 [3, 8] | XRPD Result Day 3 ([3]; slurry at 50° C., CYH) | XRPD Result Day 7 ([3]; slurry at 50° C., CYH) | XRPD Result Day 3 ([3]; slurry at 50° C., Heptane) | XRPD Result Day 7 ([3]; slurry at 50° C., Heptane) | XRPD Result Day 3 ([3]; slurry at 50° C., IPE) | XRPD Result Day 3 [3, 10] | XRPD Result Day 7 [3, 10] | XRPD Result Day 3 ([3]; slurry at 50° C., MeCYH) | XRPD Result Day 7 ([3]; slurry at 50° C., MeCYH) | XRPD Result Day 3 [3, 11] | XRPD Result Day 7 [3, 11] | XRPD Result Day 3 ([3]; slurry at 50° C., Water) | XRPD Result Day 7 ([3]; slurry at 50° C., Water) | XRPD Result-Day 3 ([3]; Water) | XRPD Result Day 3 ([3]; slurry at RT, ACN/water (1/9)) | XRPD Result Day 7 ([3]; slurry at RT, ACN/water (1/9)) | XRPD Result Day 3 [3, 13] | XRPD Result Day 7 [3, 13] | XRPD Result Day 3 [3, 14] | XRPD Result Day 7 [3, 14] | XRPD Result Day 3 [3, 15] | XRPD Result Day 7 [3, 15]
Form VIII: XRPD Result-Day 3 ([3]; CYH) | XRPD Result-Day 3 ([3]; Heptane) | XRPD Result-Day 3 ([3]; MeCYH)
Form III: XRPD Result Day 7 [3, 6] | XRPD Result Day 3 ([3]; slurry at 50° C., MTBE) | XRPD Result Day 7 ([3]; slurry at 50° C., MTBE) | XRPD Result Day 3 ([3]; slurry at RT, MTBE) | XRPD Result Day 7 ([3]; slurry at RT, MTBE)
Clear: XRPD Result Day 3 ([3]; slurry at 50° C., Toluene) | XRPD Result Day 7 ([3]; slurry at 50° C., Toluene)
Form IV (6 d): XRPD Result (6 d) [5]
<1000 µg/mL: Estimated Solubility ([4]; CYH) | Estimated Solubility ([4]; Heptane) | Estimated Solubility ([4]; IPE) | Estimated Solubility ([4]; Water)
Gel-like on the wall: XRPD Result Day 3 ([3]; slurry at RT, Toluene) | XRPD Result Day 7 ([3]; slurry at RT, Toluene)

[2H]C([2H])(Oc1cc(C)n(-c2c(C)cnc(-n3ccc(C(C)(C)O)n3)c2F)c(=O)c1Cl)c1ncc(F)cc1F [Form VIII]
Form I: Output of competitive slurry (XRPD) ([2]; Water, 1 d)

From patent publication US20240182449A1, “CRYSTALLINE FORMS OF AN MK2 INHIBITOR” (XinThera, Inc., priority 2022, published 2024)
